These results are taken from patent US20050004000A1, “Oral absorbed drugs” (priority 2001, published 2005).

One data set relates to F10.9 melanoma cell line. Nature of the data set: Inhibition of proliferation of cancer cells in vitro, crystal violet staining. It is filed as cell-based. The settings on record: F10.9 melanoma cells, 96 hours, crystal violet staining (FIG. 2); read-out: IC50 (the concentration at which cell growth is inhibited by 50%). The protocol: (§1) The efficacy of native Dox and FMS-Dox on the inhibition of proliferation of cancer cells was tested in vitro with F10.9 melanoma cell line. On day (−1) cells, were seeded in a 24-well plate (5×10^3 cells/ml/well). On day (0), cells were incubated with Dox and FMS-Dox at logarithmic dilutions from 100 μM to 0.001 μM. Survival of cells at 96 hours was determined, using the crystal violet staining method. Optical density (OD) was measured at 620 nm in an ELISA reader. The OD reading was correlated to % viable cells. When the cells were untreated the absorbance was at a maximum. IC50 (the concentration at which cell growth is inhibited by 50%) was determined. The results in FIG. 2 show IC50 values of 0.03 μM and 0.09 μM for native Dox and FMS-Dox, respectively. […] The was confirmed by HPLC analysis whereby the compound found in the growing cell medium after 96 hr corresponded to native doxorubicin.

Data set [1] can be described thus: HPLC analysis of growing cell medium (cleavage of Fms-Dox). Type of data set: in vitro ADME. The settings on record: growing cell medium after 96 hr. The protocol:
as §1

Fms-doxorubicin: in the data set on F10.9 melanoma cell line, the IC50 is 90 nM. Further, the “cleavage in the cell medium (HPLC analysis)” value in data set [1] is reported as “full recovery of the native doxorubicin”.
